Biological target: O-GlcNAcase (OGA) (Mus musculus, UniProt Q9EQQ9)
Assay: biochemical

Sequence of O-GlcNAcase (OGA) (Q9EQQ9 whole entry): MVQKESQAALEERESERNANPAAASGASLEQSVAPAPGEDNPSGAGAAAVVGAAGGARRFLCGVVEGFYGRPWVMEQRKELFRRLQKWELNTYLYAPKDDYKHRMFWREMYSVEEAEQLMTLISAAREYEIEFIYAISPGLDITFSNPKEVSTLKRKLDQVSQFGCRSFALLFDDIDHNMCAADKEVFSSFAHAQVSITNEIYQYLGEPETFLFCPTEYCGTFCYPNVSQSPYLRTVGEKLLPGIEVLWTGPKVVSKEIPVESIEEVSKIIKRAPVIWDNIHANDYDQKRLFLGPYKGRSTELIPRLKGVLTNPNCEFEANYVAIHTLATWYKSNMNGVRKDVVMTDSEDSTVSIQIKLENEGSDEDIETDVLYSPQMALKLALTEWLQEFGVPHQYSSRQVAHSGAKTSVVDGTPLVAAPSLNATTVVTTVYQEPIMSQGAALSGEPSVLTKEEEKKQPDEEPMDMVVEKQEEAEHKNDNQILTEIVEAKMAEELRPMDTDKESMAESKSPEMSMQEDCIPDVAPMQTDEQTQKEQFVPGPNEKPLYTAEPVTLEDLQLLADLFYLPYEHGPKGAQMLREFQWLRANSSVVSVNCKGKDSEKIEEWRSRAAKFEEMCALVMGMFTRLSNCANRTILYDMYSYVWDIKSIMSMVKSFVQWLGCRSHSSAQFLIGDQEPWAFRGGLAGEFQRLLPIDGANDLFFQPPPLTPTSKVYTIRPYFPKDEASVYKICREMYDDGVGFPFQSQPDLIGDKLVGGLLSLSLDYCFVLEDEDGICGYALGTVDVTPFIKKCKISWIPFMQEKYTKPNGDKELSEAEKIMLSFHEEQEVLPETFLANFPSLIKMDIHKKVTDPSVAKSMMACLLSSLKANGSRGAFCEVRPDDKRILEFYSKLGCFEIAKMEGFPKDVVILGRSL

Kd: 1.7 nM
Compound: CCNC1=N[C@@H]2[C@@H](O)[C@H](O)[C@@H](CO)O[C@@H]2S1 [Thiamet G]

From publication PMC5437664, “Inhibition of O-GlcNAcase leads to elevation of O-GlcNAc tau and reduction of tauopathy and cerebrospinal fluid tau in rTg4510 mice” (Molecular Neurodegeneration, 2017)
